Molecular target: T1, PAF receptor (Homo sapiens, UniProt P25105)
T1 construct: Platelets are obtained from healthy men according to the usual method; endogenous in cells; host or cells: platelets from healthy men
Assay: PAF Receptor Binding Assay to the Human Platelet (3H-PAF)
Settings: PAF receptor binding assay IC50, human platelets, 3H-PAF 0.6-1 nM, 37° C., pH 7.0
Method: Platelets are obtained from healthy men according to the usual method and suspended at a concentration of 10^8 platelets/460 μl in a binding buffer (10 mM phosphate-buffers saline (pH 7.0), with 0.1% (w/V) BSA and 0.9 mM CaCl2). Platelets (10^8) in 460 μl of the buffer were added to polypropylene tubes and preincubated with test compounds (20 μl), after vortexing, for 6 min at 37° C. Subsequently, 20 μl of a binding buffer solution of ^3 H-PAF (final ^3 H-PAF concentration 0.6-1 nM) was added to the tubes, which were incubated for 6 minutes. The binding reaction was stopped by adding of 3 ml of an ice-cold washing solution (saline containing 0.1% (w/v) BSA). Platelets were isolated by vacuum filtration on glass filters (Whatman GF/C). After drying the glass filter, radioactivity on the glass filter was measured in scintilator with a liquid scintillation counter.
The inhibition percent is calculated according to the following equation and the value of IC is determined by interpolation from the figure. [formula] binding: radioactivity of binding in the absence of cold PAF or test compounds
non-specific binding: radioactivity of binding in the presence of 10^-5 M PAF
non-specific binding: radioactivity (dpm) after the incubation with 10^-5 M of cold PAF.

T1 sequence (P25105 whole entry): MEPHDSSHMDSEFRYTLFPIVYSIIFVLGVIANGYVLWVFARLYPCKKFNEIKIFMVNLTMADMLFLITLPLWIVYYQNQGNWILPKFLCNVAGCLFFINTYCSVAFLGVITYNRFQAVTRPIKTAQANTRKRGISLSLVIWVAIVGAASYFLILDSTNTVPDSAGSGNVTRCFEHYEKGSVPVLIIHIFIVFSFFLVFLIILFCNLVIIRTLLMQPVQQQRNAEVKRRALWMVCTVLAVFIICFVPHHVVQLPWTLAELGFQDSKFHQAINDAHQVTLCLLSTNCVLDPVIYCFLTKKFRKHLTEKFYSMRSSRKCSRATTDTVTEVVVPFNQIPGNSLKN

Row | SMILES | IC50 [nM]
1 | Cc1nnc2n1-c1sc3c(c1C(c1ccccc1Cl)=NC2)CCN(C(=O)OC(C)(C)C#N)C3 | 3.3
2 | Cc1nnc2n1-c1sc3c(c1C(c1ccccc1Cl)=NC2)CCN(C(=O)C1CCC1)C3 | 1.8
3 | Cc1nnc2n1-c1sc3c(c1C(c1ccccc1Cl)=NC2)CCN(C(=O)C#Cc1ccccc1)C3 | 0.56
4 | C#CCCCCOC(=O)N1CCc2c(sc3c2C(c2ccccc2Cl)=NCc2nnc(C)n2-3)C1 | 0.22
5 | CCC#CCOC(=O)N1CCc2c(sc3c2C(c2ccccc2Cl)=NCc2nnc(C)n2-3)C1 | 0.74
6 | Cc1nnc2n1-c1sc3c(c1C(c1ccccc1Cl)=NC2C)CCN(C(=O)C1CC1)C3 (single isomer, unassigned) [drawing 94] | 420
7 | Cc1nnc2n1-c1sc3c(c1C(c1ccccc1Cl)=NC2C)CCN(C(=O)C1CC1)C3 (single isomer, unassigned) [drawing 95] | 2.8
8 | Cc1nnc2n1-c1sc3c(c1C(c1ccccc1Cl)=NC2)CCN(C(=O)OCCCC#N)C3 [drawing 82] | 2.7
9 | C#CCCOC(=O)N1CCc2c(sc3c2C(c2ccccc2Cl)=NCc2nnc(C)n2-3)C1 [drawing 83] | 3.5
10 | Cc1nnc2n1-c1sc3c(c1C(c1ccccc1Cl)=NC2)CCN(C(=O)OCCCC#N)C3 [drawing 89] | 4.4

Same assay, conditions: human platelets, 3H-PAF 0.6-1 nM, 37° C., pH 7.0; read-out: PAF receptor binding assay IC50

Row | SMILES | IC50 [nM]
11 | Cc1nnc2n1-c1sc3c(c1C(c1ccccc1Cl)=NC2C)CCN(C(=O)OC(C)(C)C#N)C3 (single isomer, unassigned) [drawing 90] | 500
12 | Cc1nnc2n1-c1sc3c(c1C(c1ccccc1Cl)=NC2C)CCN(C(=O)OC(C)(C)C#N)C3 (single isomer, unassigned) [drawing 91] | 3.1
13 | C#CCCOC(=O)N1CCc2c(sc3c2C(c2ccccc2Cl)=NC(C)c2nnc(C)n2-3)C1 (single isomer, unassigned) [drawing 92] | 82
14 | C#CCCOC(=O)N1CCc2c(sc3c2C(c2ccccc2Cl)=NC(C)c2nnc(C)n2-3)C1 (single isomer, unassigned) [drawing 93] | 0.34
15 | C#CCCOC(=O)N1CCc2c(sc3c2C(c2ccccc2Cl)=NCc2nnc(C)n2-3)C1 [drawing 88] | 1.5
